Source: patent US4309439A, “Substituted-acetic acid ester” (Sumitomo Chemical Company, Limited, priority 1975, dated 1982)
Converted amounts (≈) assume the structure as drawn. Like-named read-outs stand apart in the source and are kept apart here.

Experiments:
Assay type in all cases: in vivo
[1] = test system: house-fly adults (Musca domestica); test: knock-down of house-fly adults by 0.1% oil spray in glass chamber (Experimental Example 3); details: 0.7 ml, (70 cm)^3 glass chamber
Protocol: Each of the following present compounds is formulated into a 0.1% oil spray using deodorized kerosene. The following compounds as a control are also likewise treated.
About 50 house-fly adults (Musca domestica) are liberated in a (70 cm)^3 glass chamber. Thereafter, 0.7 ml of each oil spray is sprayed under a pressure of 1.5 kg/cm^2 and the knock-down of the insects with the lapse of time is observed. This test is repeated several times with each oil spray to obtain the values of KT50 (time required for 50% knock-down) as shown in the following table. The present compounds are indicated by the foregoing compound number.

[2] = test system: smaller brown planthoppers (Laodelphax striatellus); test: LC50 against smaller brown planthoppers on sprayed rice plants (Experimental Example 2); details: 24 h
Protocol: The following compounds as a control are also treated in the same manner as described above.
The emulsifiable concentrates thus formulated were diluted with water to a required concentration. Each test solution thus prepared was individually sprayed on the rice plants in a pot which had elapsed 25 days after sowing, in a proportion of 10 ml/pot. Thereafter, each pot was covered with a cylindrical wire net and 15 smaller brown planthoppers (Laodelphax striatellus) were liberated in the pot. After one day, the dead and alive were observed and the value of LC50 of every concentrate was obtained from the mortality.
The compounds of the present invention are expressed by the foregoing compound number.

[3] = test system: Carmine mite female adults (Tetranychus cinnabarinus); test: damage of kidney beans by carmine mites (Example 20); details: emulsifiable concentrate of Preparation Example 1 diluted 500 times; 10 cc/pot; after 10 days
Protocol: To 20 parts of each of the present compounds (1), (2), (3), (4), (5), (8), (10), (11), (14), (18), (19), (21), (23), (28), (30) and (33) are added 20 parts of Sorpol SM-200 (the same as above) and 60 parts of xylene. The mixtures are each thoroughly mixed to make a solution. Thus emulsifiable concentrate of each compound is obtained.
Carmine mite female adults (Tetranychus cinnabarinus) were made parasitic on the leaves of potted kidney beans (2-leaf stage) which had elapsed 9 days after sowing, in a proportion of 10-15/leaf. […] Among the emulsifiable concentrates formulated according to Preparation Example 1, those containing the present compounds (1), (4), (14), (19), (23), (30) and (33) were each diluted 500 times with water. At this time, each test solution thus prepared was sprayed in a proportion of 10 cc/pot by means of a turn table. After 10 days, damage of the kidney beans by the insects was checked.

[4] = test system: armyworms and cutworms, cabbage worm and diamond-back moth; test: green-house test on chinese cabbages with armyworms and cutworms, cabbage worm and diamond-back moth (Example 21); details: 20% solution in cellosolve; active ingredient 50 g/10 are
Protocol: A green-house (3 m in height) was divided into plots having an area of 30 m^2 and chinese cabbages were grown up therein. Thereafter, armyworms and cutworms, cabbage worm and diamond-back moth were artificially made parasitic on the cabbages. The present compounds (1), (3) and (4) were each dissolved in cellosolve to make a 20% solution. Each test solution thus prepared was sprayed under pressure on the cabbages so that the amount of the active ingredient becomes 50 g/10 are.

[5] = test system: green rice leafhopper adults (Nephotettix cincticeps); test: kill of green rice leafhopper adults by dusts on rice plants (Example 18); details: dust of Preparation Example 6 (with piperonyl-butoxide), 3 kg/10 are; after one day; 1440 min
Protocol: One part of each of the present compounds (2), (4), (5), (7), (12), (17), (20), (21), (22), (25), (26), and (35) and 5 parts of piperonyl-butoxide are dissolved in 20 parts of acetone, and then 94 parts of 300 mesh talc are added thereto. After thoroughly mixing in a mortar while stirring, acetone is removed by evaporation. Thus dust of each compound is obtained.
Among the dusts formulated according to Preparation Example 6, those containing the present compounds (2), (7), (12), and (25) were each dusted, using Belljar duster, on the rice plants in a 1/50,000 Wagner pot which had elapsed 45 days after sowing, in a proportion of 3 kg/10 are. After covering the pot with wire net, about 30 green rice leafhopper adults (Nephotettix cincticeps) were liberated therein. After one day, more than 70% of the test insects were killed.

[6] = test system: green rice leafhoppers (Nephotettix cincticeps); test: mortality of green rice leafhoppers on sprayed rice plants (Experimental Example 1); details: 30% concentrate / wettable powder diluted 300 times; 10 ml/pot; after one day; 1440 min
Protocol: An emulsifiable concentrate is prepared by blending 30% of each of the present compounds (1) to (35), 50% of xylene and 20% of Sorpol SM-200 (a registered trade mark of Toho Kagaku Co.).
The emulsifiable concentrates thus formulated were diluted 300 times with water. […] Each test solution thus prepared was individually sprayed on the rice plants in a pot which had elasped 25 days after sowing, in a proportion of 10 ml/pot. Thereafter, each pot was covered with a cylindrical wire net and 15 green rice leafhoppers (Nephotettix cincticeps) were liberated in the pot.

[7] = rice plants sprayed 10 ml/pot, after one day, read-out: LC50

| Structure (SMILES) | KT50 (time required for 50% knock-down) [1] [s] | LC50 [2, 7] [µg/mL] | also measured |
| --- | --- | --- | --- |
| COc1ccc(C(C(=O)OC(C#N)c2cccc(Oc3ccccc3)c2)C(C)C)cc1 (stereo not drawn) [drawing 50, reference compound] | 490 |  |  |
| C#CCCC=C(C)C(C#C)OC(=O)C(c1ccc(Br)cc1)C(C)C (stereo not drawn) [Compound 11, 4-Methylnona-4-ene-1,8-diyne-3-yl α-isopropyl-4-bromophenylacetate] | 147 |  |  |
| C#CCc1ccc(C(C#C)OC(=O)C(c2ccc(OC)cc2)C(C)C)o1 (stereo not drawn) [reference compound] | 183 |  |  |
| C#CCc1ccc(COC(=O)C(c2ccc(Cl)cc2)C(C)C)o1 (stereo not drawn) [reference compound] |  | 68 (≈ 206 µM) |  |
| C#CCC=C(C)C(C#C)OC(=O)C(c1ccc(OC)c(OC)c1)C(C)(C)C (stereo not drawn) [Compound 19, 4-Methylocta-4-ene-1,7-diyne-3-yl α-t-butyl-3,4-dimethoxyphenyl-acetate] |  | 43 (≈ 117 µM) | increase in damage of the kidney beans [3]: an increase in the damage was not observed |
| C#CCC=C(C)C(C#C)OC(=O)C(c1cc2c(s1)CCCC2)C(C)C (stereo not drawn) [Compound 29] |  | 48 (≈ 135 µM) |  |
| C#CCC=C(C)C(C#C)OC(=O)C(c1coc(C)c1)C(C)C (stereo not drawn) [Compound 6, 4-Methylocta-4-ene-1,7-diyne-3-yl 2-(5-methyl-3-furyl)-isovalerate] |  | 32 (≈ 107 µM) |  |
| C#CCCC=C(C)C(C#C)OC(=O)C(CC)c1ccc(C#N)cc1 (stereo not drawn) [Compound 23, 4-Methylnona-4-ene-1,8-diyne-3-yl α-ethyl-4-cyanophenylacetate] | 140 | 50 (≈ 157 µM) | increase in damage of the kidney beans [3]: an increase in the damage was not observed |
| C#CCC=C(C)C(C#C)OC(=O)C(c1cc2c(s1)CCC2)C(C)C (stereo not drawn) [Compound 30, 4-Methylocta-4-ene-1,7-diyne-3-yl 2-(4,5-tri-methylene-thienyl)-isovalerate] | 158 |  | increase in damage of the kidney beans [3]: an increase in the damage was not observed |
| C#CCC=C(CC)C(C#C)OC(=O)C(c1ccc(Cl)cc1)C(C)C (stereo not drawn) [Compound 10, 4-Ethylocta-4-ene-1,7-diyne-3-yl α-isopropyl-4-chlorophenylacetate] |  | 34 (≈ 99.2 µM) |  |
| COc1ccc(C(C(=O)OCc2cccc(Oc3ccccc3)c2)C(C)C)cc1 (stereo not drawn) [reference compound] |  | 87 (≈ 223 µM) |  |
| COc1ccc(C(C(=O)OC(C#N)c2cccc(Oc3ccccc3)c2)C(C)C)cc1 (stereo not drawn) [drawing 45, reference compound] |  | 73 (≈ 176 µM) |  |
| C#CCC=C(C)C(C#C)OC(=O)C(c1ccc2c(c1)OCO2)C(C)C (stereo not drawn) [Compound 4, 4-Methylocta-4-ene-1,7-diyne-3-yl α-isopropyl-3,4-methylenedioxyphenyl-acetate] | 136 | 28 (≈ 82.7 µM) | spread of damage by the insect [4]: no spread of damage by the insect was observed; increase in damage of the kidney beans [3]: an increase in the damage was not observed |
| C#CC(C=Cc1ccccc1)OC(=O)C(c1ccc(SC)cc1)C(C)C (stereo not drawn) [Compound 27, 5-Phenylpenta-4-ene-1-yne-3-yl α-isopropyl-4-methylthiophenyl-acetate] |  | 66 (≈ 181 µM) |  |
| CC(C)C(C(=O)OCc1coc(Cc2ccccc2)c1)c1ccc(Cl)cc1 (stereo not drawn) [reference compound] | 510 |  |  |
| C#CCC=C(C)C(C#C)OC(=O)C(c1ccc2c(c1)CCC2)C(C)C (stereo not drawn) [Compound 33, 4-Methylocta-4-ene-1,7-diyne-3-yl 2-(5-indanyl)-isovalerate] |  |  | increase in damage of the kidney beans [3]: an increase in the damage was not observed |
| C#CCC=C(C)C(C#C)OC(=O)C(c1ccc(Cl)c(Cl)c1)C(C)C (stereo not drawn) [Compound 2, 4-Methylocta-4-ene-1,7-diyne-3-yl α-isopropyl-3,4-dichlorophenyl-acetate] |  | 31 (≈ 85.3 µM) | test insects killed [5]: more than 70% |
| C#CCC=C(C)C(C#C)OC(=O)C(c1ccc2c(c1)CCCC2)C(C)C (stereo not drawn) [Compound 5, 4-Methylocta-4-ene-1,7-diyne-3-yl α-isopropyl-3,4-tetramethylenephenyl-acetate] | 140 |  |  |
| CNC(=O)Oc1cccc2ccccc12 [Carbaryl, 1-naphthyl-N-methylcarbamate] |  |  | mortality [6]: more than 90% |
| C#CCC=C(C)C(C#C)OC(=O)C(c1ccc(OC)cc1)C(C)C (stereo not drawn) [Compound 3, 4-Methylocta-4-ene-1,7-diyne-3-yl α-isopropyl-4-methoxyphenylacetate] | 139 | 35 (≈ 108 µM) | spread of damage by the insect [4]: no spread of damage by the insect was observed |
| C=CCC1=C(C)C(OC(=O)C2C(C=C(C)C)C2(C)C)CC1=O (stereo not drawn) [Allethrin, reference compound] | 504 |  |  |
| C#CCC=C(C)C(C#C)OC(=O)C(c1csc(C)c1)C(C)C (stereo not drawn) [Compound 7, 4-Methylocta-4-ene-1,7-diyne-3-yl 2-(5-methyl-3-thienyl)-isovalerate] | 175 |  | test insects killed [5]: more than 70% |
| C#CCC=C(C)C(C#C)OC(=O)C(c1ccc(Cl)cc1)C(C)C (stereo not drawn) [Compound 1, 4-Methylocta-4-ene-1,7-diyne-3-yl α-isopropyl-4-chlorophenylacetate] | 128 | 23 (≈ 69.9 µM) | spread of damage by the insect [4]: no spread of damage by the insect was observed; increase in damage of the kidney beans [3]: an increase in the damage was not observed |
| C#CCC=C(C)C(C#C)OC(=O)C(c1cc2ccccc2o1)C(C)C (stereo not drawn) [Compound 34, 4-Methylocta-4-ene-1,7-diyne-3-yl 2-(2-benzo-furyl)-isovalerate] | 170 |  |  |
| C#CCC(C(=O)OC(C#C)C(=CCCC=C)CC)c1ccc(CC)cc1 (stereo not drawn) [Compound 25, 4-Ethylnona-4,8-diene-1-yne-3-yl α-propargyl-4-ethylphenylacetate] |  |  | test insects killed [5]: more than 70% |
| CC(C)=CC1C(C(=O)OCc2coc(Cc3ccccc3)c2)C1(C)C (stereo not drawn) [Resmethrin, reference compound] | > 600 |  |  |
| C#CC(OC(=O)C(c1ccc(F)cc1)C(C)C)C(C)=CCc1ccccc1 (stereo not drawn) [Compound 12, 6-Phenyl-4-methylhexa-4-ene-1-yne-3-yl α-isopropyl-4-fluoro-phenylacetate] |  |  | test insects killed [5]: more than 70% |
| CNC(=O)Oc1ccccc1Cl [Hopcide, reference compound] |  |  | LC50 [2]: 75 µg/mL (≈ 404 µM) |
| C#CC(OC(=O)C(c1ccc(OC)cc1)C(C)C)C(C)=CCCC=C (stereo not drawn) [Compound 14, 4-Methylnona-4,8-diene-1-yne-3-yl α-isopropyl-4-methoxyphenylacetate] | 174 | 46 (≈ 135 µM) | increase in damage of the kidney beans [3]: an increase in the damage was not observed |
